Laboratory results published in ChEMBL document CHEMBL3351479, “Novel acylureidoindolin-2-one derivatives as dual Aurora B/FLT3 inhibitors for the treatment of acute myeloid leukemia” (Eur J Med Chem, 2014).

Tests used:
Aurora kinase B [1] = target: T1, Aurora kinase B (Homo sapiens, UniProt Q96GD4); assay: Inhibition of Aurora B (unknown origin) using HLRRASLG substrate
[2] = target: T2, Receptor-type tyrosine-protein kinase FLT3 (Homo sapiens, UniProt P36888); assay: Inhibition of FLT3 (unknown origin) using EAIYAAPFAKKK substrate
T2 sequence (P36888 whole entry): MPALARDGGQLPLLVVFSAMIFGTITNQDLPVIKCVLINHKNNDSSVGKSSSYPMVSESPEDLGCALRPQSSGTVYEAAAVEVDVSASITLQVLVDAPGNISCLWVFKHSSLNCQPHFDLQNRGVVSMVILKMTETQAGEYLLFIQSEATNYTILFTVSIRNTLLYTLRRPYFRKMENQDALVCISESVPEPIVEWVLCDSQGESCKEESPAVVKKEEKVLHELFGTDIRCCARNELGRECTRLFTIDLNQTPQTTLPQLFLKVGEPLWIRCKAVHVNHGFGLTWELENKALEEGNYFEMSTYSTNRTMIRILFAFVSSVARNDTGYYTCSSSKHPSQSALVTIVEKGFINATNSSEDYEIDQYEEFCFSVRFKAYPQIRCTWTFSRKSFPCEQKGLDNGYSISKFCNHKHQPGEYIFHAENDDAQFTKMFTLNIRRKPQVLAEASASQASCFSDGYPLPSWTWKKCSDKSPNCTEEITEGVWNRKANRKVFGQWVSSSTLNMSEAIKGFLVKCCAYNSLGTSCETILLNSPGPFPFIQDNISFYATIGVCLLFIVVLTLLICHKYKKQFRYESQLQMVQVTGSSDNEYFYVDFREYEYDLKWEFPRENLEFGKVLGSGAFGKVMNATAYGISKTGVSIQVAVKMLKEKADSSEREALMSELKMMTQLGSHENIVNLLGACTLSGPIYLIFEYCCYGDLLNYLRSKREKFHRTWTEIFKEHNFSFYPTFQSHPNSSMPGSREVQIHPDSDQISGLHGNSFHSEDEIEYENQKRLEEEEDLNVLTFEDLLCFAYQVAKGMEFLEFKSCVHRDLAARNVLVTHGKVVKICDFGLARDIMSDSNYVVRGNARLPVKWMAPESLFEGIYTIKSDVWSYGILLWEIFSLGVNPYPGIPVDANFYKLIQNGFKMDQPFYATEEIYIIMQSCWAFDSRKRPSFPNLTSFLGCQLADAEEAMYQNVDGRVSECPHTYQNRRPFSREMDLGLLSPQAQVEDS

MV4-11 [3] = assay: Cytotoxicity against human MV4-11 cells assessed as cell viability after 48 hrs by MTT assay; assay type: functional, cell-based
MOLM-13 [4] = assay: Cytotoxicity against human MOLM13 cells assessed as cell viability after 48 hrs by MTT assay; assay type: functional, cell-based; details: MOLM-13, 48 h
THP-1 [5] = assay: Cytotoxicity against human THP1 cells assessed as cell viability after 48 hrs by MTT assay; assay type: functional, cell-based
[6] = Cytotoxicity against human HL60 cells assessed as cell viability after 48 hrs by MTT assay; assay type: functional, cell-based; details: HL-60, 48 h
MV4-11 [7] = assay: Cytotoxicity against human MV4-11 cells assessed as cell viability at 1 uM after 48 hrs by MTT assay; assay type: functional; details: MV4-11, 48 h, read-out: Activity
MOLM-13 [8] = assay: Cytotoxicity against human MOLM13 cells assessed as cell viability at 1 uM after 48 hrs by MTT assay; assay type: functional; details: MOLM-13, 48 h, read-out: Activity
THP-1 [9] = assay: Cytotoxicity against human THP1 cells assessed as cell viability at 1 uM after 48 hrs by MTT assay; assay type: functional; details: THP-1, 48 h, read-out: Activity
[10] = Cytotoxicity against human HL60 cells assessed as cell viability at 1 uM after 48 hrs by MTT assay; assay type: functional; details: HL-60, 48 h, read-out: Activity
[11] = Ratio of solubility in PBS to solubility in DMSO; assay type: physicochemical
[12] = Permeability coefficient of the compound at pH 7.4 by PAMPA-GIT assay; assay type: ADME; details: read-out: Peff
Aurora kinase B [13] = target: T1, Aurora kinase B; assay: Inhibition of Aurora B (unknown origin) using HLRRASLG substrate at 1 uM
[14] = target: Receptor-type tyrosine-protein kinase FLT3 (Homo sapiens) (UniProt P36888); assay: Inhibition of FLT3 (unknown origin) using EAIYAAPFAKKK substrate at 1 uM
[15] = target: Platelet-derived growth factor receptor alpha (Homo sapiens) (UniProt P16234); assay: Inhibition of PDGFRalpha (unknown origin) at 1 uM
[16] = target: Platelet-derived growth factor receptor beta (Homo sapiens) (UniProt P09619); assay: Inhibition of PDGFRbeta (unknown origin) at 1 uM
[17] = target: Aurora kinase A (Homo sapiens) (UniProt O14965); assay: Inhibition of Aurora A (unknown origin) at 1 uM
[18] = target: Aurora kinase C (Homo sapiens) (UniProt Q9UQB9); assay: Inhibition of Aurora C (unknown origin) at 1 uM
Chain of Aurora kinase C (Homo sapiens) (Q9UQB9 whole entry): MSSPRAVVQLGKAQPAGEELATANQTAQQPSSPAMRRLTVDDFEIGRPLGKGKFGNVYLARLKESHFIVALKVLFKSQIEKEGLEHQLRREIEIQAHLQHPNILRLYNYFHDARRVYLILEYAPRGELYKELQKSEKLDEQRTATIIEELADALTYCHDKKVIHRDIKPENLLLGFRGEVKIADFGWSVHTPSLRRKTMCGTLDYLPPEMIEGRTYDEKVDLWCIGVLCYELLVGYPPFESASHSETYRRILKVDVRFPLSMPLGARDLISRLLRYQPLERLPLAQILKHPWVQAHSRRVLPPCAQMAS

T1 sequence (Q96GD4 whole entry): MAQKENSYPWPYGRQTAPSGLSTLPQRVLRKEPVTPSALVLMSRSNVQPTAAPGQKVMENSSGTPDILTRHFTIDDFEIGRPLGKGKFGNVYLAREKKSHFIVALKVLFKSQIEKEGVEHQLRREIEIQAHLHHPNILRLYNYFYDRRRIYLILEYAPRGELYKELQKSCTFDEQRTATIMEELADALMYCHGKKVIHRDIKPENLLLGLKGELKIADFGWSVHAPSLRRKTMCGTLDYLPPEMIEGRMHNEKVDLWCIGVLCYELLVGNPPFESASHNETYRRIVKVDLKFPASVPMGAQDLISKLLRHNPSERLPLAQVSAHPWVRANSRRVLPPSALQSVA
Chain of Platelet-derived growth factor receptor beta (Homo sapiens) (P09619 whole entry): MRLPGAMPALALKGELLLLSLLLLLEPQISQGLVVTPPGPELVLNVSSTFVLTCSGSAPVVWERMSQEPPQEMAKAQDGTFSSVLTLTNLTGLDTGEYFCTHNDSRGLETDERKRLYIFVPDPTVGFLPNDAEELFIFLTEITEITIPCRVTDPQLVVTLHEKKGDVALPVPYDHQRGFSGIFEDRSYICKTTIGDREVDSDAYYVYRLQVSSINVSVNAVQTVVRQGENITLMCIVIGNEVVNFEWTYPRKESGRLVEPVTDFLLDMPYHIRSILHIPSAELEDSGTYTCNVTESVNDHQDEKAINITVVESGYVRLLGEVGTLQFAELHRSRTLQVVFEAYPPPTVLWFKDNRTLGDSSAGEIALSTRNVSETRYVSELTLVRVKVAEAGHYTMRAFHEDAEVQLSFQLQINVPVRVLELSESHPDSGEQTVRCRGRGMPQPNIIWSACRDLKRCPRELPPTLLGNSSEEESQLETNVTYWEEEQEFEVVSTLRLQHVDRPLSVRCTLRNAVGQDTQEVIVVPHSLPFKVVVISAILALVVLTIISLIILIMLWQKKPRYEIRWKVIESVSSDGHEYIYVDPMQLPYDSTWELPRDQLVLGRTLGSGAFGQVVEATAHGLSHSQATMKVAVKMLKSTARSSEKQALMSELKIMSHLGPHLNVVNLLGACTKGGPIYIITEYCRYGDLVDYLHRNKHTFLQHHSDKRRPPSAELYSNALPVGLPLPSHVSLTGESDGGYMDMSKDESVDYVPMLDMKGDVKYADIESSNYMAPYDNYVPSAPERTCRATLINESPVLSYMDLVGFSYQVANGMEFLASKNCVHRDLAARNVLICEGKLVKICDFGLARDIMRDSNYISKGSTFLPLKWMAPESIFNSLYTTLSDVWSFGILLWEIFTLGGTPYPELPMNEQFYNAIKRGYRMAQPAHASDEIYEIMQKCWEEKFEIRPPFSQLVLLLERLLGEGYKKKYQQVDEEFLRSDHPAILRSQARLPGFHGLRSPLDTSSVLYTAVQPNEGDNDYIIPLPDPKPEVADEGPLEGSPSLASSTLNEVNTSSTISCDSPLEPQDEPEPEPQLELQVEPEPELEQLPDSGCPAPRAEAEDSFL
Chain of Aurora kinase A (Homo sapiens) (O14965 whole entry): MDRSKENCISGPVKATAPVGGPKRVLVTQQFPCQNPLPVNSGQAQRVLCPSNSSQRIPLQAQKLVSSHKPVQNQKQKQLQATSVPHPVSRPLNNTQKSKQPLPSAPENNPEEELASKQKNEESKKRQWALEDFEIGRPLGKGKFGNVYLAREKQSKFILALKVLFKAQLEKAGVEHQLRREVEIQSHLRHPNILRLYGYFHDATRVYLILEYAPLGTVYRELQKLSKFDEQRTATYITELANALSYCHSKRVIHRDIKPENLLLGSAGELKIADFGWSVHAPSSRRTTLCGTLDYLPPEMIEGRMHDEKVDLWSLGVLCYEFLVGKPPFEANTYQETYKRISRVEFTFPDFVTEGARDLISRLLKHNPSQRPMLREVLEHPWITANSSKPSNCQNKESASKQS
Chain of Platelet-derived growth factor receptor alpha (Homo sapiens) (P16234 whole entry): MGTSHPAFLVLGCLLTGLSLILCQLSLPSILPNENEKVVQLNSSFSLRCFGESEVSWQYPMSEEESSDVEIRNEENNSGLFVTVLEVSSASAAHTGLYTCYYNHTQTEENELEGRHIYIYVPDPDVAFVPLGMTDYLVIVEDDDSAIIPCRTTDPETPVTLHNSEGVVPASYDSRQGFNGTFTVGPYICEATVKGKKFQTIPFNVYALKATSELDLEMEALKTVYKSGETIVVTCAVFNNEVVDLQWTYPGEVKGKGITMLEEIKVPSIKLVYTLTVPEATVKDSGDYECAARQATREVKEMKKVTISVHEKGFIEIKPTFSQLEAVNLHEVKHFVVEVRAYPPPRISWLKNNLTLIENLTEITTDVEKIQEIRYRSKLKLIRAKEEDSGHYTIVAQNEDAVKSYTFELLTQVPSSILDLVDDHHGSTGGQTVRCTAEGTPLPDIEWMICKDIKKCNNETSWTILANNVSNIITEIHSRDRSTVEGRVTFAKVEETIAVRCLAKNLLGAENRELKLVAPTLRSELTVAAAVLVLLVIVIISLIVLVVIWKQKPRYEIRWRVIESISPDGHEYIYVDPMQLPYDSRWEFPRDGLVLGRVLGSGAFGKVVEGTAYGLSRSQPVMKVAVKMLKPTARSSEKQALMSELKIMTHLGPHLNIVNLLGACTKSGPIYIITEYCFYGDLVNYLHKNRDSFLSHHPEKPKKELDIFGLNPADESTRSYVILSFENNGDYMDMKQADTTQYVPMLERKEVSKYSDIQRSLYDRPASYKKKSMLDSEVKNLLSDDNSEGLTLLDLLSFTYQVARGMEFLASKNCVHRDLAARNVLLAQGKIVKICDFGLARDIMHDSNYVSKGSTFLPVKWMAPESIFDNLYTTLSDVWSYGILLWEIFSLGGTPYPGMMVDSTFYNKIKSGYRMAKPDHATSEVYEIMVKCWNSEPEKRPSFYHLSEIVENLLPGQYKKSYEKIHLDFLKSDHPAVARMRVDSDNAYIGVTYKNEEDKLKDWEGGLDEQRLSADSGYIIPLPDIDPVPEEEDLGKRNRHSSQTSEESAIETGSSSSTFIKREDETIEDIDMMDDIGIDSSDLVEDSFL

| Structure (SMILES) | IC50 (Aurora kinase B [1]) [nM] | IC50 [2] [nM] | Ratio [11] | Papp [12] [×10⁻⁶ cm/s] | inhibition (Aurora kinase B [13]) [%] | inhibition [14] [%] | inhibition [15] [%] | inhibition [16] [%] | inhibition [17] [%] | inhibition [18] [%] | IC50 (MV4-11 [3]; Homo sapiens, MV4-11, 48 h) [nM] | IC50 (MOLM-13 [4]) [nM] | IC50 (THP-1 [5]; Homo sapiens, THP-1, 48 h) [nM] | IC50 [6] [nM] | viability at 1 µM (MV4-11 [7]) [%] | viability at 1 µM (MOLM-13 [8]) [%] | viability at 1 µM (THP-1 [9]) [%] | viability at 1 µM [10] [%] | IC50 (MV4-11 [3]; mv4-11) [nM] | IC50 (THP-1 [5]; thp-1) [nM] |
| --- | --- | --- | --- | --- | --- | --- | --- | --- | --- | --- | --- | --- | --- | --- | --- | --- | --- | --- | --- | --- |
| COc1ccc(C(=O)NC(=O)Nc2ccc3c(c2)NC(=O)/C3=C\c2[nH]c(C)c(CCC(=O)O)c2C)cc1 |  |  | 0.57 |  |  |  |  |  |  |  | 5.3 | 5.2 | 52.8 | 6.4 |  |  |  |  |  |  |
| COc1ccc(C(=O)NC(=O)Nc2ccc3c(c2)NC(=O)/C3=C/c2cccs2)cc1 | 21.5 | > 1000 |  |  |  |  |  |  |  |  | 292 | > 500 | 375 | 300 |  |  |  |  |  |  |
| COc1ccc(C(=O)NC(=O)Nc2ccc3c(c2)NC(=O)/C3=C\c2ccc[nH]2)cc1 |  |  | 0.37 | 0.67 | 94 |  | 30 | 35 | 11 | 17 | 29.3 | 18.1 | 68.4 | 29.5 |  |  |  |  |  |  |
| CCOC(=O)c1c(C)[nH]c(/C=C2\C(=O)Nc3cc(NC(=O)NC(=O)c4ccc(OC)cc4F)ccc32)c1C | > 1000 | > 1000 |  |  |  |  |  |  |  |  | 11.3 | 9.8 | 74 | 13 |  |  |  |  |  |  |
| COc1ccc(C(=O)NC(=O)Nc2ccc3c(c2)NC(=O)/C3=C/c2ccncc2)cc1 |  |  |  |  | 7 | 4 |  |  |  |  | > 500 | > 500 | > 500 | > 500 | 72 | 65 | 96 | 95 |  |  |
| COc1ccc(C(=O)NC(=O)Nc2ccc3c(c2)NC(=O)/C3=C\c2[nH]c(C)c(C(=O)NCCN3CCCC3)c2C)c(F)c1.CS(=O)(=O)O |  |  | 0.97 |  |  |  |  |  |  |  |  |  |  |  |  |  |  |  | 2 | 32.2 |
| COc1ccc(C(=O)NC(=O)Nc2ccc3c(c2)NC(=O)/C3=C\c2[nH]c(C)c(C(=O)O)c2C)cc1 |  |  | 0.32 | 0.23 |  |  |  |  |  |  | 12 | 9 | 78.4 | 15.8 |  |  |  |  |  |  |

Further lines, with some results ahead:

| IC50 (Aurora kinase B [1]) [nM] | IC50 [2] [nM] | Ratio [11] | Papp [12] [×10⁻⁶ cm/s] | inhibition (Aurora kinase B [13]) [%] | inhibition [14] [%] | inhibition [15] [%] | inhibition [16] [%] | inhibition [17] [%] | inhibition [18] [%] | Structure (SMILES) | IC50 (MV4-11 [3]; Homo sapiens, MV4-11, 48 h) [nM] | IC50 (MOLM-13 [4]) [nM] | IC50 (THP-1 [5]; Homo sapiens, THP-1, 48 h) [nM] | IC50 [6] [nM] | viability at 1 µM (MV4-11 [7]) [%] | viability at 1 µM (MOLM-13 [8]) [%] | viability at 1 µM (THP-1 [9]) [%] | viability at 1 µM [10] [%] | IC50 (MV4-11 [3]; mv4-11) [nM] | IC50 (THP-1 [5]; thp-1) [nM] |
| --- | --- | --- | --- | --- | --- | --- | --- | --- | --- | --- | --- | --- | --- | --- | --- | --- | --- | --- | --- | --- |
| > 1000 | > 1000 |  |  |  |  |  |  |  |  | COc1ccc(C(=O)NC(=O)Nc2ccc3c(c2)NC(=O)/C3=C\c2ccc(C(=O)O)[nH]2)cc1 | > 500 | > 500 | > 500 | > 500 | 62 | 55 | 65 | 65 |  |  |
|  |  | 0.58 | 2.46 |  |  |  |  |  |  | COc1ccc(C(=O)NC(=O)Nc2cc3c(cc2F)/C(=C/c2[nH]c(C)c(C(=O)O)c2C)C(=O)N3)cc1 | 34.6 | 25.3 | 81.2 | 32.2 |  |  |  |  |  |  |
|  |  |  |  | 73 | 21 |  |  |  |  | COc1ccc(C(=O)NC(=O)Nc2ccc3c(c2)NC(=O)/C3=C/c2cccc(C(=O)O)c2)cc1 | > 500 | 291 | > 500 | > 500 | 57 | 53 | 71 | 59 |  |  |
|  |  | 0.58 | 2.49 |  |  |  |  |  |  | COc1ccc(C(=O)NC(=O)Nc2ccc3c(c2)NC(=O)/C3=C\c2[nH]c(C)c(C(=O)O)c2C)c(F)c1 | 5.3 | 5.2 | 79.5 | 6.4 |  |  |  |  |  |  |
| > 1000 |  |  |  |  |  |  |  |  |  | COc1ccc(C(=O)NC(=O)Nc2ccc3c(c2)NC(=O)/C3=C\c2[nH]c(C)c(-c3ccccc3)c2C)cc1 | > 500 | > 500 | > 500 | > 500 | 51 | 51 | 73 | 65 |  |  |
|  |  |  |  | 44 | 15 |  |  |  |  | COc1ccc(C(=O)NC(=O)Nc2ccc3c(c2)NC(=O)/C3=C/c2ccco2)cc1 | > 500 | > 500 | > 500 | > 500 | 70 | 62 | 74 | 64 |  |  |
|  | > 1000 |  |  | 29 |  |  |  |  |  | COc1ccc(C(=O)NC(=O)Nc2ccc3c(c2)NC(=O)/C3=C/c2ccccn2)cc1 | > 500 | > 500 | > 500 | > 500 | 60 | 62 | 85 | 80 |  |  |
